From patent US5096919A, “Pyrrolylphenyl-substituted hydroxamic acid derivatives” (Ciba-Geigy Corporation, priority 1989, dated 1992)

Experiments:
[1] = target: T1, 5-lipoxygenase (Cavia porcellus, UniProt A0A286X958); experiment: Inhibition of 5-HETE and LTB4 synthesis in A-23187-stimulated guinea pig polymorphonuclear leukocytes; assay type: cell-based; conditions: also printed as 7×10^-7 M, read-out: IC50 for inhibition of the formation of 5-HETE and leukotriene B4 (LTB4)
T1 construct: in A-23187-stimulated guinea pig polymorphonuclear leukocytes; endogenous in cells; host or cells: guinea pig polymorphonuclear leukocytes
T1 sequence (A0A286X958 1-674): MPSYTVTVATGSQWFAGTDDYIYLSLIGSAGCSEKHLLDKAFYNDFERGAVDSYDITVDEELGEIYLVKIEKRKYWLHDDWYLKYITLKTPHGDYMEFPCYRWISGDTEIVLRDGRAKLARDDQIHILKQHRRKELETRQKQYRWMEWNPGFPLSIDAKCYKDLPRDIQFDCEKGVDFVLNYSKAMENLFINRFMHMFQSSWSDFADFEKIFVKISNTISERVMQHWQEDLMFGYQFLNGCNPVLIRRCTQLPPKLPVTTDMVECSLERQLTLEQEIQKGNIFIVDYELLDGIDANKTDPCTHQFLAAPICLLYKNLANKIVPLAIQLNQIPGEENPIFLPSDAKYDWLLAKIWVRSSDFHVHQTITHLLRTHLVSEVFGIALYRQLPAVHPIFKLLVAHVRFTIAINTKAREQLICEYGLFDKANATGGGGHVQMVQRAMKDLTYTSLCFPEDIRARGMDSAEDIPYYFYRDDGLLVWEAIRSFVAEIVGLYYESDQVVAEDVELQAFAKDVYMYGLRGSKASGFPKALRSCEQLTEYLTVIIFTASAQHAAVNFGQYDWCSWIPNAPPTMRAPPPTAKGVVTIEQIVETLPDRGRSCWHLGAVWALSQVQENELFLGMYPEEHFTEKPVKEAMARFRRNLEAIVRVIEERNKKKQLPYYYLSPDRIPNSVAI
Method: 5-Lipoxygenase inhibition is determined e.g. by measuring the percent inhibition of the synthesis of 5-HETE [(5S)-5-hydroxy-6,8,11,14-eicosa-tetraenoic acid] and leukotriene B4 (LTB4, 5,12-dihydroxy-6,8,10,14-eicosatetraenoic acid) in A-23187-stimulated guinea pig polymorphonuclear leukocytes, essentially according to radiometric thin-layer chromatographic assays described by Walker and Dawson (J. Pharm. Pharmacol. 31: 778, 1979) and Jakschik and Lee (Nature 287: 51, 1980) used to measure the formation of 5-HETE and LTB4 -like products from ^14 C-arachidonic acid. IC50 values are determined graphically as the concentration of test compound at which the synthesis of 5-HETE and LTB4 -like products is reduced to 50% of their respective control values.
(§1) Illustrative of the invention, the compound of example 1, (E)-3-[4-(2,5-dimethyl-1H-pyrrol-1-yl)-phenyl]-N-hydroxy-N-methyl-2-propenamide, inhibits the formation of 5-HETE [(5S)-5-hydroxy-6,8,11,14-eicosa-tetraenoic acid] and leukotriene B4 (LTB4, 5,12-dihydroxy-6,8,10,14-eicosatetraenoic acid) in A-23187-stimulated guinea pig polymorphonuclear leukocytes, e.g. at an IC50 of about 0.7 micromolar (7×10^-7 M).

[2] = tested on: 5-lipoxygenase; experiment: Ex vivo inhibition of A-23187-stimulated LTB4 formation in whole blood after oral administration; conditions: dose of about 1 mg/kg p.o. to the dog
Method: Furthermore, the inhibition of 5-lipoxygenase is determined after oral or i.v. administration to rats or dogs by measuring ex vivo in whole blood the decrease of A-23187-stimulated LTB4 formation as compared to non-treated control animals.
as §1

[3] = tested on: rat pleurisy model of inflammation; experiment: Carrageenin-induced pleurisy model of inflammation; assay type: in vivo; conditions: 10 mg/kg p.o. at -1, 6, 24 and 45 hours relative to carrageenin injection, 48 hours after injection

Cc1ccc(C)n1-c1ccc(/C=C/C(=O)N(C)O)cc1 [Example 1, (E)-3-[4-(2,5-dimethyl-1H-pyrrol-1-yl)-phenyl]-N-hydroxy-N-methyl-2-propenamide]
IC50 [1]: ~700 nM
inhibition of LTB4 formation as determined ex vivo [2]: 50%
cell count of leukocytes [3]: lowers the cell count of leukocytes
inhibition of exudate volume [3]: causes inhibition of exudate volume
